These results are taken from ChEMBL document CHEMBL1201862, “PubChem BioAssay data set” (2004).

What all share (assay): growth of human tumour cells (NCI), 48 h
For assay [1], the system named is NCI-H226.
For assay [2], the system named is SK-MEL-28.
The subject of assay [3] is LOX IMVI.
In assay [4] the test system is OVCAR-5.
Assay [5] concerns RPMI-8226.
Assay [6] concerns HCC 2998.
The subject of assay [7] is MDA-MB-435.
Assay [8] relates to BT-549.
Assay [9] deals with UACC-62.
The test system of assay [10] is SK-MEL-5.
The test system of assay [11] is K562.
The subject of assay [12] is HCT-15.
Assay [13] deals with KM12.
In assay [14] the test system is NCI-H23.
The subject of assay [15] is ACHN.
Assay [16] relates to COLO 205.
The test system of assay [17] is 786-0.
For assay [18], the system named is Hs-578T.
For assay [19], the system named is Malme-3M.
In assay [20] the test system is LXFL 529.

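48-hour exposure; five concentrations; linearly interpolated endpoints. Abbreviation: GI50, concentration required for 50% inhibition of growth.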 Calls of active or inactive are those of the source. No stated cut-off is given here; in the data, active = GI50 up to about 1.1 µM and inactive = higher. Where a SMILES comes first, the peptide text is derived from it. [ ]: non-standard residue; d: D form. The star is where a group is joined. Hyp = O=C(O)[CH]1C[CH](O)CN1; Cbz = O=C(OCc1ccccc1)*

Take `CCN1C/C(=C\c2cc(OC)c(OC)c(OC)c2)C2=NN(c3ccccc3)C(c3cc(OC)c(OC)c(OC)c3)C2C1` (stereo not given): the GI50 is 4.68 µM (inactive) in [1]; 0.871 µM (active) in assay [2]; 2.08 µM (inactive) in [3]; 2.84 µM (inactive) in assay [4]; 1.13 µM (inactive) in [5]; 1.07 µM (active) in assay [6]. Also, the GI50 was 1.52 µM (inactive) in assay [7]; 6.75 µM (inactive) in [8]; 20.1 µM (inactive) in assay [9]; 3.74 µM (inactive) in assay [10]; 1.65 µM (inactive) in [11]; 5.58 µM in assay [12]. Also, the GI50 was 4.34 µM (inactive) in assay [13]; 3.56 µM (inactive) in assay [14]; 9.33 µM (inactive) in assay [15]; 2.36 µM (inactive) in assay [16]; 0.398 µM (active) in assay [17]; 0.34 µM (active) in [18]. Moreover, the GI50 in assay [19] was 0.203 µM (active).

`CC1CC[C@@]2(OC1)O[C@H]1C[C@H]3[C@@H]4CC[C@H]5C[C@@H](OC6OC(CO)C(OC7OC(CO)C(OC8OC(CO)C(O)C(OC9OC(C)C(OC%10OC(C)C(O)C(O)C%10O)C(O)C9O)C8OC8OCC(O)C(O)C8O)C(O)C7O)C(O)C6O)CC[C@]5(C)[C@H]4CC(=O)[C@]3(C)[C@H]1[C@@H]2C` (stereo not given in full): the GI50 is 18.8 µM (inactive) in [1]; 18.1 µM (inactive) in assay [2]; 23.8 µM (inactive) in assay [3]; 20.8 µM (inactive) in assay [4]; 16.2 µM (inactive) in [5]; 18.7 µM (inactive) in assay [6]. In addition, the GI50 in assay [7] is 18.7 µM (inactive); in [8], 20.9 µM (inactive); in assay [9] it was 18.8 µM (inactive); in assay [10] it was 16.8 µM (inactive); in assay [11] it was 16.7 µM (inactive); in assay [12] it was 19.1 µM. For the same molecule, the GI50 was 18.2 µM (inactive) in [13]; 20.5 µM (inactive) in assay [14]; 17.2 µM (inactive) in [15]; 16.5 µM (inactive) in assay [16]; 22.4 µM (inactive) in assay [17]; 24.2 µM (inactive) in assay [18]. For the same molecule, the GI50 in assay [19] was 22.4 µM (inactive).

As to `COc1cc2c(cc1O)C=NCC2`, the GI50 was > 100 µM (inactive) in [1]; > 100 µM (inactive) in [2]; > 100 µM (inactive) in [4]; > 100 µM (inactive) in [5]; > 100 µM (inactive) in assay [9]; 63.5 µM (inactive) in assay [10]. Besides, the GI50 was > 100 µM (inactive) in [11]; more than 100 µM in [12]; > 100 µM (inactive) in assay [13]; > 100 µM (inactive) in [14]; > 100 µM (inactive) in assay [15]; 65.8 µM (inactive) in [16]. In addition, the GI50 in assay [17], in [20] and in assay [19] was > 100 µM (inactive) each time.

In the case of `CC(C)C(=O)/C=C/c1c(Cl)cccc1Cl`, the GI50 in assay [1] was 2.33 µM (inactive); in assay [2], 5.81 µM (inactive); in [3] it was 2.47 µM (inactive); in assay [4], 3.21 µM (inactive); in assay [5] it was > 100 µM (inactive); in [6], 15.6 µM (inactive). In addition, the GI50 is 3.08 µM (inactive) in assay [7]; 2.64 µM (inactive) in assay [8]; 6.35 µM (inactive) in assay [9]; 4.95 µM (inactive) in assay [10]; 9.35 µM (inactive) in [11]; 4.55 µM in assay [12]. Also, the GI50 is 2.85 µM (inactive) in assay [13]; 2.33 µM (inactive) in assay [14]; 4.74 µM (inactive) in assay [15]; 10.4 µM (inactive) in [16]; 7.74 µM (inactive) in assay [17]; 2.35 µM (inactive) in assay [18]. In addition, the GI50 in assay [19] was 4.45 µM (inactive).

For `CCN(c1ccccc1)[C@H]1C(=O)N(c2ccc([N+](=O)[O-])cc2)[C@H]1c1ccc(OC)cc1`, the GI50 was > 100 µM (inactive) in assay [1]; > 100 µM (inactive) in assay [2]; > 100 µM (inactive) in assay [4]; > 100 µM (inactive) in assay [5]; > 100 µM (inactive) in assay [6]; 35.7 µM (inactive) in assay [9]. Further, the GI50 is > 100 µM (inactive) in assay [10]; 41.6 µM (inactive) in [11]; > 100 µM (inactive) in assay [13]; > 100 µM (inactive) in assay [14]; > 100 µM (inactive) in [15]; 38 µM (inactive) in assay [16]. The GI50 in [17], in assay [20] and in assay [19] was > 100 µM (inactive) in each case.

With `CC1(O)CCC2(C)C(=O)C1(C)CCC21OCCO1` (stereo not given), the GI50 in assay [1], in assay [2], in assay [4], in [5], in [6] and in [10] was > 100 µM (inactive) throughout. For the same molecule, the GI50 is > 100 µM (inactive) in assay [11]; more than 100 µM in assay [12]; > 100 µM (inactive) in assay [13]; > 100 µM (inactive) in assay [14]; > 100 µM (inactive) in [15]; > 100 µM (inactive) in assay [16]. Besides, the GI50 in assay [17], in assay [20] and in assay [19] was > 100 µM (inactive) each time.

On to `NC(=O)CNC(=O)C1CC(O)CN1C(=O)C1CCCN1C(=O)OCc1ccccc1` (stereo not drawn) (Cbz-Pro-[Hyp]-Gly-NH2; configuration not given here), for which the GI50 in [1], in assay [2], in assay [3], in assay [4], in assay [5] and in [6] was > 100 µM (inactive) throughout. Moreover, the GI50 was > 100 µM (inactive) in [7]; > 100 µM (inactive) in assay [8]; > 100 µM (inactive) in [9]; > 100 µM (inactive) in [10]; > 100 µM (inactive) in [11]; more than 100 µM in assay [12]. Moreover, the GI50 in assay [13], in assay [14], in assay [15], in assay [16], in [17] and in assay [18] was > 100 µM (inactive) each time. For the same molecule, the GI50 in assay [19] was > 100 µM (inactive).

As for `COc1ccc2c(c1OC)C(=O)O[C@@H]2[C@H]1c2c(cc3c(c2OC)OCO3)CCN1C` [NOSCAPINE], the GI50 in assay [1] is > 100 µM (inactive); in [2] it was 42.1 µM (inactive); in [3], 37.2 µM (inactive); in [4] it was > 100 µM (inactive); in [5], 23.3 µM (inactive); in assay [6] it was 79.4 µM (inactive). In addition, the GI50 in assay [7] is 4.86 µM (inactive); in assay [8] it was 45.7 µM (inactive); in assay [9], 56.9 µM (inactive); in assay [10] it was 48.3 µM (inactive); in [11], 33 µM (inactive); in [12] it was 43.4 µM. In addition, the GI50 in assay [13] is 45.8 µM (inactive); in assay [14], 79.1 µM (inactive); in assay [15], 62.5 µM (inactive); in assay [16], 63.5 µM (inactive); in assay [17], 49.9 µM (inactive); in [18] it was 21.1 µM (inactive). In addition, the GI50 in assay [19] was 33.5 µM (inactive).
